Results: ChEMBL document CHEMBL1133308, “A novel inhibitor of human telomerase derived from 10H-indolo[3,2-b]quinoline” (Bioorg Med Chem Lett, 2000)

Experiments:
[1] = Compound was evaluated for cytotoxicity against human ovarian cancer cell CHI; type: functional, cell-based; details: Cancer cell lines
[2] = biological target: Telomerase reverse transcriptase (Homo sapiens, UniProt O14746); test: Inhibitory activity against human ovarian cancer cell (A2780 cells) Telomerase; type: cell-based
[3] = Compound was evaluated for cytotoxicity against human ovarian cancer cell A2780R.; type: functional, cell-based; details: Cancer cell lines
[4] = Compound was evaluated for cytotoxicity against human ovarian cancer cell CHI R; type: functional, cell-based; details: Cancer cell lines
[5] = Compound was evaluated for cytotoxicity against human ovarian cancer cell SKOV-3; type: functional, cell-based; details: Cancer cell lines
[6] = Compound was evaluated for cytotoxicity against human ovarian cancer cell A2780; type: functional, cell-based; details: Cancer cell lines

Telomerase reverse transcriptase, sequence (O14746 whole entry): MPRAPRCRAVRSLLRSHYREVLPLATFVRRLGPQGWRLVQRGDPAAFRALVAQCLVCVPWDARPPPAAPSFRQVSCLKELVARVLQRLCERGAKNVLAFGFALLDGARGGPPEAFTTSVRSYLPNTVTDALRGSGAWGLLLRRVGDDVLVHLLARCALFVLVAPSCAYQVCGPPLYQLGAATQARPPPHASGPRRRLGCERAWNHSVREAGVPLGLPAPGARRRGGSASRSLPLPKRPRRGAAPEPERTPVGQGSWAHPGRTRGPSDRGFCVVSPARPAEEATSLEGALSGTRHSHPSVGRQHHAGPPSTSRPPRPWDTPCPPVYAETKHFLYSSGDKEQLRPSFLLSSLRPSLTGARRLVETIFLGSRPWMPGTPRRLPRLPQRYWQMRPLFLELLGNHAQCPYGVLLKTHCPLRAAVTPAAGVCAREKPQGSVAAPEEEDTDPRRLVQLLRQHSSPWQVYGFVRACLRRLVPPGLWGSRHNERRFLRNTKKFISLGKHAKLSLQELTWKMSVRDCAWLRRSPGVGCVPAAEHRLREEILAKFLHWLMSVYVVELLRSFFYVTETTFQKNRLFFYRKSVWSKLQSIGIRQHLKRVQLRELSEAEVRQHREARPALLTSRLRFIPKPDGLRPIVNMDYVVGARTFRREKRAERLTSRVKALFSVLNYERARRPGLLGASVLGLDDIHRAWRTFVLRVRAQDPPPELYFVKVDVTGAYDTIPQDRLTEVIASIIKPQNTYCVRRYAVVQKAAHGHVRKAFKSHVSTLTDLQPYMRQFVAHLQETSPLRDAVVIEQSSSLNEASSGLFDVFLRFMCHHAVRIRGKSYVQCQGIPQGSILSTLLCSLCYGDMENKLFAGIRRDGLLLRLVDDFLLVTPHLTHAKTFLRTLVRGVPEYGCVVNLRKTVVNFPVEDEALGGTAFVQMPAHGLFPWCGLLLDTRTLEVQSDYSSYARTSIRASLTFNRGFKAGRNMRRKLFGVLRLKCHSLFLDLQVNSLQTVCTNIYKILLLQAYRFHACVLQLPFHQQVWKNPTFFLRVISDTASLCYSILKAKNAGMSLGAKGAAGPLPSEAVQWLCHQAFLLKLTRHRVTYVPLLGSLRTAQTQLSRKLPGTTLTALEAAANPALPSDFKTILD

IC50 [2] [µM] | Compound | IC50 [1] [µM] | IC50 [3] [µM] | IC50 [4] [µM] | IC50 [5] [µM] | IC50 [6] [µM]
16 | CN(C)CCc1ccc2nc3c4ccccc4n(CCN(C)C)c3cc2c1 | 8.4 | 10.5 | 12.5 | 6.3 | 12.5
7 | CCN(CC)CCOc1ccc2c(c1)OC1C(=O)c3ccccc3C(=O)C21 (stereo not given) | 0.18 | – | – | 3.6 | 0.15
– | c1ccc2nc3c(cc2c1)[nH]c1ccccc13 [QUINDOLINE] | 15.5 | 24.5 | 30 | 66 | 21.5
